The values that follow come from ChEMBL document CHEMBL6071131, “New substituted benzoxazine derivatives as potent inducers of membrane permeability and cell death” (Bioorg Med Chem, 2024).

In one assay the test system is MCF7. Briefly: Antiproliferative activity against human MCF7 cells incubated for 5 days by PrestoBlue assay. The settings on record: MCF7, 120 h. In kind it is functional, cell-based.
The next assay relates to HCT-116. The assay is described as follows: Antiproliferative activity against human HCT-116 cells incubated for 5 days by PrestoBlue assay. The format is functional, cell-based. The following applies: HCT-116, 120 h.

Broadly, the IC50 is the concentration that gives 50% inhibition. A high value points to lower potency.

Consider `Cc1ccc(S(=O)(=O)N2CC(CCn3cnc4c(Cl)nc(Cl)nc43)Oc3ccccc32)cc1` (configuration not stated), for which the IC50 was 13 µM with MCF7 and 7.06 µM in the assay on HCT-116.
